Test results published in patent EP0041047A2, “Dioxide compounds, process for their preparation and their use” (CIBA-GEIGY AG, priority 1980, dated 1981).

Legend:
[1] = tested on: Escherichia coli 205 R^+ TEM; test: Protection of infected mice, subcutaneous application (ED50); type: in vivo, Maus
Source text: (§1) Aufgrund dieser ß-Lactamase-inhibierenden Wirkung erhöhen die Verbindungen der vorliegenden Erfindung die Wirkung von β-Lactamantibiotika in vitro und in vivo, wie durch Vergleich der antibiotischen Wirkungen von Verbindungen der vorliegenden Erfindung und von β-Lactamantibiotika allein und in Kombination miteinander festgestellt werden kann. Beispielsweise liegen in vitro die MIC-Werte von 1:1 Kombinationen der erfindungsgemässen Verbindung der Formel (I), worin R1 Hydroxy und R2 Carboxy bedeuten, oder des Natriumsalzes davon mit Ampicillin, Cefsulodin (CGP7174/E) oder Cefotiam (CGP14221/E) gegen eine Reihe der obengenannten ß-Lactamase produzierenden Mikroorganismen signifikant niedriger als die MIC-Werte der Einzelverbindungen. In vivo, beispielsweise bei subcutaner Applikation an Mäusen, die mit ß-Lactamase produzierenden Mikroorganismen infiziert wurden, z.B. mit Escherichia coli 205 R^+ TEM oder Morganella morganii 2359, wurde eine signifikante Erniedrigung der ED50-Werte gegenüber denjenigen der Einzelkomponenten festgestellt. Einige Werte sind in der folgenden Tabelle zusammengestellt: […]

Morganella morganii 2359 = test: as above; type: in vivo; conditions: infecting microorganism Morganella morg. 2359
Source text: as §1

Compound | ED50 ([1]; Escherichia coli, sc, read-out: s.c. ED50 (mg/kg, Maus)) [mg/kg] | ED50 (Morganella morganii 2359; Morganella morganii, sc, Maus) [mg/kg] | s.c. ED50 (mg/kg, Maus) ([1]; Maus, s.c., infecting microorganism Esch.coli: 205 RT) [mg/kg] | s.c. ED50 (mg/kg, Maus) (Morganella morganii 2359) [mg/kg]
CN(C)CCn1nnnc1SCC1=C(C(=O)O)N2C(=O)[C@@H](NC(=O)Cc3csc(N)n3)[C@H]2SC1 [B, Cefotiam] | 70 | 75 | – | –
(3R, 5R, 6R)-2,2-Dimethyl-6-hydroxymethylpenam-3-carbonsäure-1,1-dioxid-natriumsalz | – | – | 100 | 100
